In patent publication US3931299A, “9β-Formyl prostaglandin derivatives” (American Home Products Corporation, priority 1974, dated 1976):

What was measured:
[1] = tested on: bronchoconstricting effects of a standard dose of acetylcholine; experiment: bronchodilation in the guinea pig by aerosol inhalation (method of Rosenthale et al.); format: in vivo
Source text: In using the compounds of the invention to produce bronchodilating effects in warm-blooded animals, they may be administered in a variety of dosage forms: oral, injectable, and aerosol inhalation. Aerosol inhalation is a preferred method because of its rapid onset of action, great potency, and specificity of action. The particular dosage to obtain the bronchodilating effect will vary with the particular compound employed, the particular animal involved, and the degree of bronchodilation desired. In the guinea pig, by aerosol inhalation, the dose to produce bronchodilation is from about 0.15 micrograms to about 100 micrograms, and preferably from about 0.15 to about 50 micrograms. The bronchodilation produced upon aerosol inhalation can be observed by the method of Rosenthale et al., J. Pharmacol. Exp. Ther., 178, 541 (1971).
Using this procedure, the following results were obtained.

[2] = hypotension in the anesthetized dog by the intravenous route; format: in vivo
Method: In the use of the compounds of the invention to produce hypotensive effects in warm-blooded animals, administration by the injectable route is preferred, preferably the intravenous route.
Thus in the anesthetized dog by the intravenous route the dose to produce hypotension is from about 1 μg/kg. to about 200 μg/kg. and preferably from about 10 μg/kg. to about 100 μg/kg.
Using this procedure the following results were obtained.

| SMILES | Percent inhibition of the bronchoconstricting effects of a standard dose of acetylcholine ([1]; dose 0.15 μg) | Δb.p. ([2]; dose 100 μg/kg.) | Percent inhibition of the bronchoconstricting effects of a standard dose of acetylcholine ([1]; dose 1.5 μg) | Δb.p. ([2]; dose 10 μg/kg.) |
| --- | --- | --- | --- | --- |
| CCCCC[C@H](O)/C=C/[C@H]1CC[C@@H](C=O)[C@@H]1CCCCCCC(=O)O [5β-Formyl-2β-[(3S)-3-Hydroxy-Trans-1-Octenyl]-1α-Cyclopentane Heptanoic Acid] | 36% | -27 mm. Hg | – | – |
| CCCCC[C@H](O)/C=C/[C@H]1CC[C@@H](CO)[C@@H]1C/C=C\CCCC(=O)O [7-[5β-Hydroxymethyl-2β-((3S)-3-Hydroxy-Trans-1-Octenyl)-1α-Cyclopentyl]-Cis-5-Heptenoic Acid] | – | -27 mm. Hg | – | – |
| C=C1CC[C@H](/C=C/[C@@H](O)CCCCC)[C@H]1CCCCCCC(=O)O [2β-[(3S)-3-Hydroxy-Trans-1-Octenyl]-5-Methylene-1α-Cyclopentaneheptanoic Acid] | – | -32 mm. Hg | – | – |
| C=C1CC[C@H](/C=C/[C@@H](O)CCCCC)[C@H]1C/C=C\CCCC(=O)O [7-[2β-((3S)-3-Hydroxy-Trans-1-Octenyl)-5-Methylene-1α-Cyclopentyl]-Cis-5-Heptenoic Acid] | – | – | 46% | – |
| CCCCC[C@H](O)/C=C/[C@H]1CC[C@@H](C=O)[C@@H]1C/C=C\CCCC(=O)O [7-[5β-Formyl-2β-((3S)-3-Hydroxy-Trans-1-Octenyl)-1α-Cyclopentyl]-Cis-5-Heptenoic Acid] | – | – | 55% | -17 mm. Hg |
